In patent US20210163489A1, “PYRAZOLOPYRIMIDINE DERIVATIVES AND THE COMPOSITIONS AND METHODS OF TREATMENT REGARDING THE SAME” (NysnoBio Ireland DAC, priority 2016, published 2021):
Several values for one entry are separate records, joined by “and”; a condition that tells them apart may be missing. Equal entries are not always repeated.

molecular target: T1, Parkin ligase (Homo sapiens, UniProt O60260); test: Activity-based probe assay using an ubiquitin vinyl sulfone probe (TR-FRET); format: biochemical; conditions: not given
T1 construct: Enzyme: Parkin-His tagged 203 μM (10.5 mg/ml)
T1 sequence (O60260 1-465): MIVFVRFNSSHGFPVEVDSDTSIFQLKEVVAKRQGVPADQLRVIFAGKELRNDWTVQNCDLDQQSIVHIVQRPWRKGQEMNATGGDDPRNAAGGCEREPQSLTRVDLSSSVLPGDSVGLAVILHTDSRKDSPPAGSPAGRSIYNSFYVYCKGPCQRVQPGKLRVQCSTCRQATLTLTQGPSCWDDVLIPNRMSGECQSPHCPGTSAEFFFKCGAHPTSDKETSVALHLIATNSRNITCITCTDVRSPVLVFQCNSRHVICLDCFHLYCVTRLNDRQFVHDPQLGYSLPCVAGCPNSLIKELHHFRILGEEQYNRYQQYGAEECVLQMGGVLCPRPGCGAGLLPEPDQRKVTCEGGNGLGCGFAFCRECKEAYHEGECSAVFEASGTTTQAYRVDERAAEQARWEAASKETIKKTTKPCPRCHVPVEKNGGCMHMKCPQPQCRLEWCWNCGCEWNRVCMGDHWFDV
Protocol: An Ubiquitin vinyl sulfone probe can be used that irreversibly binds to the active site cysteine of Parkin ligase. Covalent attachment of the probe to the Parkin can be monitored by TR-FRET. Candidate activator compounds can be identified by increasing the activity of Parkin ligase due to an increase in TR-FRET signal. Screening for activating compounds can be distinguished from the controls as follows:
100% activation signal=Heat activated Parkin+100 nM control activator in DMSO. 0% activation signal=Heat activated Parkin+DMSO only. Parkin activators can be identified by an increase of the 0% activation signal TR-FRET signal.
• Assay Plate: White 384 well plate (Corning 3572) • Enzyme: Parkin-His tagged 203 μM (10.5 mg/ml) • Probe: Ubiquitin vinyl-sulfone (HA-Ub-VS Boston Biochem U-212) • DMSO: DMSO (Sigma cat # D4540-100ML) • Reaction Buffer: 50 mM HEPES (pH 8.5), 150 mM NaCl, 0.01% Tween 20, 0.1% BSA • Detection Buffer: 50 mM HEPES (pH 8.5), 150 mM NaCl, 0.01% Tween 20, 0.1% BSA, 800 mM KF • Detection Reagent A: 2.6 nM Anti-6HIS-Eu cryptate and 40 nM Anti-HA-XL665 in detection buffer • Eu cryptate: Anti-6HIS-Eu cryptate (CisBio 61HISKLA) • XL665: Anti-HA-XL665 (CisBio 610HAXLA) Enzyme Reaction (15 min Pre Incubation Parkin with Activator Only) • Parkin: 40 nM • HA-Ub-VS Probe: 70 nM • Activator/DMSO: 2× Activator/2% DMSO • Reaction time: 60 minutes • Temperature: 22° C. • Total volume: 10 μl reaction
• Take 10 μl of Enzyme Reaction above and add 10 μl detection Reagent A under the following conditions: • Reaction time: 60 minutes • Temperature: 22° C. • Total volume: 20 μl
Assay procedure (Using HP D-300 compound dispenser and Bravo for the operation):
1) Heat activate Parkin in reaction buffer (500 μl/1.5 ml tube: Eppendorf Thermomixer 5 minutes, 400 rpm at 58° C. and put on ice until needed). 2) Load assay plate wells with 4.8 μl 84.5 nM Parkin in reaction buffer by use of Bravo. 3) Deliver 0.2 μl 200× activator candidates in DMSO by use of HP D-300 compound dispenser. Highest 200× concentration=20 μm and then twofold dilutions. 4) Spin 1000 rpm, 2 minutes, at room temp. 5) Incubate plate for 15 minutes at room temp. 6) Add 5 μl 140 nM HA-Ub-VS Probe in reaction buffer by use of Bravo. 7) Spin 1000 rpm, 2 minutes, at room temp. 8) Incubate plate for 60 minutes at room temp. 9) Add 10 μl 2.6 nM Anti-6HIS-Eu cryptate and 40 nM Anti-HA-XL665 in detection buffer. 10) Spin 1000 rpm, 2 minutes, at room temp. 11) Incubate plate for 60 minutes at room temp. 12) Read plates on Perkin Elmer Envision instrument with the following parameters:
LANCE dual laser protocol loaded into the Envision® software
Top Mirror: LANCE/DELFIA Duel/Bias (Bar code 446) Emission Filter: APC 665 EM (Bar code 205) 2nd Emission Filter: Europium 615 EM (Bar code 203) Read […] (channel 1) and 615 nm (channel 2) wavelengths on Envision®
Data Analysis: The Data can be read in CSV files. There are two tables in those CSV files, which are the values of 655 nm (channel 1) and 615 nm (channel 2) wavelengths respectively. The data is converted to an HTRF Ratio=(Channel 1/Channel 2)*10,000
The average of all the 0 uM controls (DMSO only)=BKGD (Background—0% activation). Subtract BKGD from each HTRF Ratio value=HTRF-BKGD. The average of all the […] 100 nM control activator in DMSO controls=Max (100% activation). The following equation is then used to calculate % Activation for each well/candidate as follows: % Activation=(HTRF−BKGD/Max)*100.
Graphpad Prisim was used with Transform X values: X=Log(X) and nonlinear regression (dose-response-stimulation): Log(agonist) vs Response—variable slope (four parameters) with constrains set to Bottom=0 and Top=100.

| Compound | Parkin Ligase reaction with the Activity-based Ubiquitin vinyl sulfone probe |
| --- | --- |
| Cc1nc2c(-c3ccccc3)c(C)nn2c(S)c1Cc1ccccc1 [Compound A, 6-benzyl-2,5-dimethyl-3-phenylpyrazolo[1,5-a]pyrimidine-7-thiol] | increases |
| Cc1cc(S)n2ncc(-c3ccc(F)cc3)c2n1 [Compound L, 3-(4-fluorophenyl)-5-methylpyrazolo[1,5-a]pyrimidine-7-thiol] | increases |

same assay, conditions: activation of heat activated Parkin, HA-Ub-VS probe; read-out: Probe Assay EC50 (μM) [Example 2]

| Compound | EC50 |
| --- | --- |
| Cc1cc(S)n2ncc(-c3cc[nH]c(=O)c3)c2n1 [Compound A3] | > 100 µM |
| Cc1nc2c(-c3ccccc3)c(C)nn2c(S)c1Cc1ccccc1 [Compound A, 6-benzyl-2,5-dimethyl-3-phenylpyrazolo[1,5-a]pyrimidine-7-thiol] | 0.4 µM and 3.1 µM and 0.7 µM |
| Cc1nc2c(-c3ccccc3)c(C)nn2c(S)c1Cc1ccncc1 [Compound AA, 2,5-dimethyl-3-phenyl-6-(4-pyridylmethyl)pyrazolo[1,5-a]pyrimidine-7-thiol] | 10.9 µM |
| COc1ccc(Cn2ccc(-c3cnn4c(S)cc(C)nc34)cc2=O)cc1 [Compound B3] | 46 µM |
| Cc1nc2c(-c3ccccc3)c(C)nn2c(S)c1Cc1ccccn1 [Compound BB, 2,5-dimethyl-3-phenyl-6-(2-pyridylmethyl)pyrazolo[1,5-a]pyrimidine-7-thiol] | 14.9 µM |
| CCCc1cc(S)n2nc(C)c(-c3ccccc3)c2n1 [Compound B] | > 100 µM |
| Cc1nn2c(S)c3c(nc2c1-c1ccccc1)CN(C)CC3 [Compound C3] | 27 µM |
| Cc1nc2c(-c3ccccc3)cnn2c(S)c1Cc1ccccc1 [Compound CC, 6-benzyl-5-methyl-3-phenyl-pyrazolo[1,5-a]pyrimidin-7-thiol] | 5.8 µM |
| Cc1cc(S)n2ncc(-c3ccccc3)c2n1 [Compound C] | 75.3 µM |
| Cc1nc2c(-c3cccnc3)c(C)nn2c(S)c1Cc1ccccc1 [Compound D3] | 24 µM |
| Cc1nn2c(S)c(Cc3ccccc3)cnc2c1-c1ccccc1 [Compound DD, 6-benzyl-2-methyl-3-phenyl-pyrazolo[1,5-a]pyrimidin-7-thiol] | 6.5 µM |
| COc1ccccc1-c1c(C)nn2c(S)cc(C)nc12 [Compound D] | > 100 µM |
| Cc1nn2c(S)c(CCc3ccccc3)cnc2c1-c1ccccc1 [Compound E3] | 4 µM |
| Cc1cc(C)c2c(n1)nn1c(S)cc(C)nc21 [Compound E] | 4 µM |
| Cc1cc(S)c2ncc(-c3ccc(F)cc3)n2n1 [Compound F3] | 3 µM |
| Cc1nn2c(S)c(CC(C)C)cnc2c1-c1ccccc1 [Compound G3] | 15 µM |
| Cc1nc2c(C#N)c(C)nn2c(O)c1Cc1ccccc1 [Compound GG, 6-benzyl-7-hydroxy-2,5-dimethyl-pyrazolo-[1,5-a]pyrimidine-3-carbonitrile] | > 100 µM |
| CC(C)(C)c1cc(O)n2ncc(-c3ccc(Cl)cc3)c2n1 [Compound G] | 53.5 µM |
| Cc1ccc(-c2cnn3c(O)cc(C)nc23)cc1 [Compound H3] | 51 µM |
| Cc1nn2c(O)c(CC(C)C)cnc2c1-c1ccccc1 [Compound I3] | > 100 µM |
| CCc1nn2c(S)cc(C)nc2c1-c1ccc(F)cc1 [Compound I] | > 100 µM |
| COc1ccc(-c2cnn3c(O)cc(C)nc23)cc1 [Compound J3] | > 100 µM |
| Cc1nn2c(O)c3c(nc2c1-c1ccccc1)CCN(C)C3 [Compound K3] | > 100 µM |
| Cc1nn2c(S)c3c(nc2c1-c1ccccc1)CCCC3 [Compound K] | 3.3 µM and 3.6 µM |
| Cc1nc2c(-c3cccnc3)c(C)nn2c(O)c1Cc1ccccc1 [Compound L3] | > 100 µM |

| Compound | EC50 |
| --- | --- |
| Cc1cc(S)n2ncc(-c3ccc(F)cc3)c2n1 [Compound L, 3-(4-fluorophenyl)-5-methylpyrazolo[1,5-a]pyrimidine-7-thiol] | 18 µM |
| Cc1cc(O)n2ncc(-c3cccc(N(C)C)c3)c2n1 [Compound M3] | 96.3 µM |
| Cc1nc2c(C3CCN(C)CC3)c(C)nn2c(S)c1Cc1ccccc1 [Compound N3] | > 100 µM |
| Cc1nc2c(C3CCN(C)CC3)c(C)nn2c(O)c1Cc1ccccc1 [Compound O3] | > 100 µM |
| Cc1ccc(-c2cnn3c(O)c4c(nc23)CN(C)CC4)cc1 [Compound P3] | > 100 µM |
| Cc1cc2nc(C)c(Cc3ccc(Cl)cc3)c(O)n2n1 [Compound P, 6-[(4-chlorophenyl)methyl]-2,5-dimethyl-pyrazolo[1,5-a]pyrimidin-7-ol] | 61.4 µM |
| Cc1cc2nc(C)c(Cc3ccc(Cl)cc3)c(S)n2n1 [Compound R, 6-[(4-chlorophenyl)methyl]-2,5-dimethyl-pyrazolo[1,5-a]pyrimidine-7-thiol] | 18.2 µM |
| Cc1ccc(-c2cnn3c(S)c4c(nc23)CN(C)CC4)cc1 [Compound S3] | 6 µM |
| Cc1nc2c(-c3ccccc3)cnn2c(O)c1Cc1ccccc1 [Compound U, 6-benzyl-5-methyl-3-phenyl-pyrazolo[1,5-a]pyrimidin-7-ol] | 8.73 µM |
| Cc1nn2c(O)c(Cc3ccccc3)cnc2c1-c1ccccc1 [Compound V, 6-benzyl-2-methyl-3-phenyl-pyrazolo[1,5-a]pyrimidin-7-ol] | > 100 µM |
| Oc1c(Cc2ccccc2)cnc2c(-c3ccccc3)cnn12 [Compound W, 6-benzyl-3-phenyl-pyrazolo[1,5-a]pyrimidin-7-ol] | > 100 µM |
| Cc1nc2c(-c3ccccc3)c(C)nn2c(O)c1Cc1ccncc1 [Compound X, 2,5-dimethyl-3-phenyl-6-(4-pyridylmethyl)pyrazolo[1,5-a]pyrimidin-7-ol] | > 100 µM |
| Cc1nc2c(-c3ccccc3)c(C)nn2c(O)c1Cc1ccccn1 [Compound Y, 2,5-dimethyl-3-phenyl-6-(2-pyridylmethyl)pyrazolo[1,5-a]pyrimidin-7-ol] | > 100 µM |
| Sc1c(Cc2ccccc2)cnc2c(-c3ccccc3)cnn12 [Compound Z, 6-benzyl-3-phenyl-pyrazolo[1,5-a]pyrimidin-7-thiol] | 5.9 µM |
| Cc1nc2c(C(=O)N(C)C)c(C)nn2c(O)c1Cc1ccccc1 [EE] | > 100 µM |
| Cc1nc2c(-c3ccccn3)c(C)nn2c(O)c1Cc1ccccc1 [FF] | 17.8 µM |
| Cc1nn2c(O)cc(C(C)(C)C)nc2c1-c1ccc(Cl)cc1 [F] | 16.7 µM |
| Cc1nc2c(-c3ccccn3)c(C)nn2c(S)c1Cc1ccccc1 [HH] | 74.2 µM |
| Cc1nn2c(S)cc(C(C)C)nc2c1-c1ccccc1 [H] | > 100 µM |
| Cc1nc2c(C(=O)N(C)C)c(C)nn2c(S)c1Cc1ccccc1 [II] | > 100 µM |
| Cc1nc2c(C(F)(F)F)c(C)nn2c(O)c1Cc1ccccc1 [JJ] | > 100 µM |
| CC(C)(C)c1cc(O)n2ncc(-c3ccccc3)c2n1 [J] | 35.4 µM |
| Cc1nc2c(C(F)(F)F)c(C)nn2c(S)c1Cc1ccccc1 [LL] | 34.1 µM |
| Cc1nc2c(-c3ccncc3)c(C)nn2c(S)c1Cc1ccccc1 [MM] | 7.6 µM |
| Cc1cc(O)n2nc(C)c(-c3ccc(Cl)cc3)c2n1 [M] | > 100 µM |
